Laboratory results from patent US9492368B2, “External preparation for skin” (HAYASHIBARA CO., LTD., priority 2011, dated 2016).

Experiment: Solubility in deuterium water
Assay type: physicochemical
Procedure: For reference, the above nigerosyl adenosine was observed as a minor peak with a retention time of about 22 to 23 min between the elution peak of adenosine and that of 3′-glucosyladenosine other than the elution peaks of 5′- and 3′-glucosyladenosines and adenosine. When the fraction corresponding to such a minor peak was collected and subjected to mass spectrum (MS) analysis in usual manner, it was calculated to have a molecular weight of […] and judged to be a compound composed of two molecules of glucose bound to adenosine. Using the collected fraction and based on the chemical shift (see Table 13) of the carbons and protons of the fraction on MNR analysis under the following conditions, the substance contained in the fraction was identified as 5′-nigerosyladenosine (α-D-glucopyranosyl-(1→3)-α-D-glucopyranosyl-(1→5′)-adenosine; 5′-α-nigerosyladenosine). Since 5′-nigerosyladenosine dissolves in deuterium water in an amount of at least 6 w/v %, it has a higher solubility in aqueous media than 3′-glucosyladenosine. The carbon chemical shifts of adenosine and nigerose were obtained from the spectrum data base of organic compounds opened by The National Institute of Advanced Industrial Science and Technology (AIST) (SDBS; http://riodb01.ibase.aist.go.jp/sdbs/cgi-bin/direct_frame_top.cgi).

Compound: Nc1ncnc2c1ncn2[C@@H]1O[C@H](CO[C@H]2O[C@H](CO)[C@@H](O)[C@H](O[C@H]3O[C@H](CO)[C@@H](O)[C@H](O)[C@H]3O)[C@H]2O)[C@@H](O)[C@H]1O [5′-nigerosyladenosine, α-D-glucopyranosyl-(1→3)-α-D-glucopyranosyl-(1→5′)-adenosine]
- Amount that dissolves in deuterium water: at least 6 w/v %
